Data as given in patent US8241863B2, “Identification of an evolutionarily conserved pathway mediating transrepression of inflammatory response genes by nuclear receptors” (The Regents of the University of California, priority 2005, dated 2012).
Entries after “also recorded” stand apart in the source; their conditions may differ.

Columns and labels:
iNOS gene [1] = assay: iNOS expression in LPS-treated primary peritoneal macrophages by real-time PCR, LXR ligands; format: cell-based, mouse; conditions: for repression of iNOS activation: oxysterols 5 μM, LPS, 6 h, less potently than GW3965 1 μM where active (FIG. 14 upper)
Procedure: Thioglycollate-elicited macrophages were isolated by peritoneal lavage 3 days following peritoneal injection of 2.5 ml 3% thioglycollate (DIFCO). Cells were plated in RPMI medium 1640 and 10% fetal bovine serum. After 5 h the medium was removed and cells were fed with fresh medium. For RNAi experiments, smart-pool siRNAs (Dharmacon) against NCoR and Ubc9 were transfected into primary macrophages using lipofectamine 2000 (Invitrogen), incubated for 48 h and validated by Q-PCR and Western Blotting. LPS (Sigma) was used at a concentration of 1 μg/ml and GW3965 (obtained under MTA from GlaxoSmithKline) was used at a concentration of 1 μM.
Total RNA (isolated by RNeasy kit, Qiagen) was prepared from primary macrophages pretreated with 1 μM GW3965 (2 h) before 1 μg/ml LPS stimulation (6 h). One microgram of total RNA was used for CDNA synthesis, and 1 μl of cDNA was used for real time PCR using iNOS or inflammatory-gene-specific primers.
(§1) Macrophages were transfected with siRNA for 48 h and then stimulated with LPS ([…]) for 6 h in the absence or presence of LXR ligand (GW3965, 1 μM). iNOS expression in peritoneal macrophages was evaluated by real-time quantitative PCR and iNOS promoter activation in RAW264.7 was evaluated by luciferase assay. […] Primary macrophages were treated with LPS ([…]) with or without the LXR ligand (GW3965, 1 μM) for 1 h.
(§2) Primary mouse peritoneal macrophages were treated in the upper panel with LPS and the indicated ligands and harvested for real time PCR analysis of iNOS expression 6 h later. In the lower panel, cells were treated with the indicated ligands for 18 hours and harvest for real time PCR analysis of ABCA1 expression. GW3965 was used at a concentration of 1 μM. The oxysterols were used at a concentration of 5 μM.

ABCA1 gene = assay: ABCA1 expression in primary macrophages by real-time PCR; format: cell-based, mouse; conditions: oxysterols 5 μM, 18 hours; less potently than GW3965 1 μM for the first three (FIG. 14 lower)
Procedure: as §2

iNOS promoter [2] = assay: ChIP for LXR and NCoR on the iNOS promoter in primary macrophages, LXR ligand; format: cell-based, mouse
Procedure: For each experimental condition, 20×10^6 primary macrophages were used. Cells were pre-treated with 1 μM GW3965 (1 h) and stimulated with 1 μg/ml LPS (1 h) before crosslinking for 10 min with 1% formaldehyde. Crosslinked adducts were resuspended and sonicated resulting in DNA fragments of 300-900 bp. Anti-LXR (Calbiochem) or anti-NCoR (Affinity Bioreagents) antibodies were used. Protein-bound, immunoprecipitated DNA was reverse cross-linked at 65° C. overnight and then purified using PCR purification Kit (Qiagen). A 150-bp region of the iNOS promoter was amplified by real time PCR spanning the most proximal NF-κB site to the start of transcription.
as §1

iNOS promoter [3] = assay: iNOS-luciferase reporter in RAW264.7 cells transfected with LXRα; format: cell-based, mouse; conditions: RAW264.7, LXRα
Procedure: The RAW264.7 mouse macrophage cell line was transiently transfected with iNOS or ABCA1 promoters directing luciferase expression, pCMXhLYRα, FLAGhLXRβ, and their mutants. For transrepression experiments, wildtype LXRα and LXRβ or LXR mutants were transfected at a 3:1 (LXR to reporter plasmid) ratio using Superfect reagent (Qiagen). For siRNA experiments, RAW264.7 cells were transfected with siRNAs (40 nM) using Superfect reagent for 48 h before activation with LXR ligands and LPS induction. […]
Macrophages were transfected with siRNA for 48 h and then stimulated with LPS ([…]) for 6 h in the absence or presence of LXR ligand (GW3965, 1 μM). iNOS expression in peritoneal macrophages was evaluated by real-time quantitative PCR and iNOS promoter activation in RAW264.7 was evaluated by luciferase assay. […]

iNOS promoter [4] = assay: Chromatin immunoprecipitation on the iNOS promoter in primary macrophages or RAW 264.7 cells; format: cell-based, mouse; conditions: primary macrophages, ligand 1 h then LPS 1 h (FIG. 1e)
Procedure: 2-4×10^6 primary macrophages or RAW 264.7 cells were used per experimental point. Cells were pre-treated with 1 μM Ro (1 h) and stimulated with 1 μg/ml LPS (1 h). Cross-linking was carried out for 10 min with 1% formaldehyde and cells lysed with 1% SDS, 10 mM EDTA, 50 mM Tris-HCl pH 8.1 and sonicated 10 sec-5 times. Five μg antibody conjugated to sheep anti-rabbit dyna-beads (Dyna1) were used for immunoprecipitations. For PPARγ, 2 μg of H-100 plus 3 μg of PPARγ antibody from Geneka were used in combination. Alternatively, anti-HA protein A sepharose beads (Covance) were used for wild-type and mutant HA-tagged PPARγ proteins. HDAC3 and p65 antibodies were from SantaCruz. NCoR antibody was from Affinity Bioreagents, Inc. Beads were washed twice with wash buffer: 150 mM NaCl, 0.1% SDS, 1% Triton X-100, 2 mM EDTA, 20 mM Tris-HCl and subsequently with buffer: 0.25 M LiCl, 1% NP-40, 1% deoxycholate, 1 mM EDTA, 10 mM Tris-HCl. Beads were eluted in 300 μl of TE with 1% SDS and 0.1 M NaCO3. Elute samples and 10% inputs were reversed at 65° C. for a minimum of 6 h. […]
In FIG. 1e, primary macrophages were pretreated with Ro or GW0072 for 1 h followed by 1 h LPS induction and formaldehyde crosslinking. A 150 base pair region of the iNOS promoter spanning the most proximal NF-κB site to the start of transcription was analyzed by ChIP assays using the indicated antibodies.

PPARγ = molecular target: T1, PPARγ (Homo sapiens, UniProt P37231); conditions: cited from earlier work
T1 sequence (P37231 1-505): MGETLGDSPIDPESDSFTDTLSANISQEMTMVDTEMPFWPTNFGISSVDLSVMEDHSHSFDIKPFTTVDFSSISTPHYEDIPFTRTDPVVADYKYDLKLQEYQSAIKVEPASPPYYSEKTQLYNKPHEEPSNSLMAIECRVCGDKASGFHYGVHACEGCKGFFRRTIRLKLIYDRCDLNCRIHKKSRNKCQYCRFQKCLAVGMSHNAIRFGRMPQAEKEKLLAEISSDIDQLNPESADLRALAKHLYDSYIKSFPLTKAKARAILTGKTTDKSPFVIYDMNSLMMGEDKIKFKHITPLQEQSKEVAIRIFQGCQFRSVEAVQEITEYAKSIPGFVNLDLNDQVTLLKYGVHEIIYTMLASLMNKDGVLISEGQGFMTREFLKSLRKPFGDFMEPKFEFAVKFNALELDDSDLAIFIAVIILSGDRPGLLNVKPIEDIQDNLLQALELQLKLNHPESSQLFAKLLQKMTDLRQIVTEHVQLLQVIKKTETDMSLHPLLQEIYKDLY

iNOS gene [5] = assay: iNOS mRNA in LPS-stimulated primary macrophages (Northern blot / semi-quantitative RT-PCR), PPARγ ligands; format: cell-based, mouse; conditions: as little as 10 nM Trichostatin A 1 h, then 1 μM Ro 2 h, LPS 6 h (FIG. 1c)
Procedure: Primary macrophages were elicited by intra-peritoneal injection with 2 ml of thioglycollate. […] For RNAi experiments, smart-pool siRNAs (Dharmacon) against PIAS1, Ubc9, HDAC3, HDAC7 or control non-specific and previously validated NCoR were transected using lipofectamine 2000 (Invitrogen) into primary macrophages and incubated for 48 h.
Total RNA (Trizol method) was prepared from thioglycollate-elicited primary macrophages pre-treated with 1 μM Ro (2 h) prior to 1 μg/ml LPS stimulation (6 h). One μg of total RNA was used for cDNA synthesis using the First-strand synthesis RT system (Invitrogen). Two μl of cDNA was used for PCR using iNOS or inflammatory gene specific primers amplifying a 0.7 kb region of cDNA. GAPDH cDNA samples were carried out for 22 to 25 cycles. […]
Total RNA was analyzed for iNOS and GAPDH mRNA by Northern Blotting. […] Cells were stimulated with LPS for 6 h and total RNA was analyzed as in FIG. 1a. […] A 150 base pair region of the iNOS promoter spanning the most proximal NF-κB site to the start of transcription was analyzed by ChIP assays using the indicated antibodies. […]
In FIG. 2a, CHIP analysis of NCoR and Ubc5 occupancy on the iNOS promoter was performed in primary macrophages stimulated with LPS for the indicated times in the presence or absence of Ro. In FIG. 2b, Semi-quantitative RT-PCR analysis of iNOS and GAPDH mRNA in primary macrophages. […]

[6] = tested on: Ccl3, Ccl7, Cxcl10 and Tgtp; assay: Microarray analysis of primary macrophages treated with LPS with or without PPARγ agonist; format: cell-based, mouse; conditions: LPS (FIG. 2e)
Procedure: In FIG. 2a, CHIP analysis of NCoR and Ubc5 occupancy on the iNOS promoter was performed in primary macrophages stimulated with LPS for the indicated times in the presence or absence of Ro. In FIG. 2b, Semi-quantitative RT-PCR analysis of iNOS and GAPDH mRNA in primary macrophages. Cells were treated with Ro 1 h before (pre) or 1 h following (post) stimulation with LPS. RNA was isolated for analysis 6 h after LPS treatment. In FIG. 2c, ChIP analysis for p65 and PPARγ on iNOS and CD36 promoters in primary macrophages was performed as described in FIG. 2a. In FIG. 2d, ChIP analysis of the iNOS promoter for NCoR and PPARγ was carried out in primary macrophages 1 h following LPS stimulation. Ro was given 1 h before (pre) or 1 h after (post) stimulation. Cells were transfected with control or NCoR-specific siRNAs 48 h prior to LPS stimulation. In FIG. 2e, Expression data derived from microarray analysis of primary macrophages treated with LPS in the presence or absence of the PPARγ-specific agonist GW7845. In FIG. 2f, ChIP analysis for NCoR and PPARγ on the indicated promoters was carried out using primary macrophages as in 2d.

With C[C@@H](CO)CCC[C@@H](C)[C@H]1CC[C@H]2[C@@H]3CC=C4C[C@@H](O)CC[C@]4(C)[C@H]3CC[C@]12C [27-hydroxycholesterol] the “repression of iNOS activation” value (iNOS gene [1]) was “do not repress iNOS activation” and the “induction of ABCA1 expression” value (ABCA1 gene) was “activate ABCA1”.
In the case of O=C(O)Cc1cccc(OCCCN(Cc2cccc(C(F)(F)F)c2Cl)CC(c2ccccc2)c2ccccc2)c1 [GW3965], the “effect of NCoR-specific siRNA on ligand-dependent repression of LPS-induced iNOS expression” value (iNOS gene [1]; peritoneal macrophages, GW3965 1 μM, LPS 1 mg/ml 6 h (FIG. 10A)) was “abolishes”, the “effect of Ubc9-specific siRNA on ligand-dependent repression of LPS-induced iNOS expression” value (iNOS gene [1]; peritoneal macrophages, GW3965 1 μM, LPS 1 mg/ml 6 h (FIG. 11A)) was “significantly impairs” and the “LXR recruitment on the iNOS promoter” value (iNOS promoter [2]; GW3965 1 μM, LPS 1 h (FIG. 10C)) was “ligand-dependent and NCoR-dependent LXR recruitment”. The “LPS-stimulated release of NCoR from the iNOS promoter” value (iNOS promoter [2]; peritoneal macrophages, GW3965 1 μM (FIG. 10D)) was “inhibits”, the “effect of NCoR-specific siRNA on ligand-dependent repression of iNOS promoter activation” value (iNOS promoter [3]; GW3965 1 μM (FIG. 10B)) was “abolishes” and the “effect of Ubc9-specific siRNA on ligand-dependent repression of iNOS promoter activation” value (iNOS promoter [3]; GW3965 1 µM (FIG. 11B)) was “significantly impairs”.
In the case of CCCCCCCC1SC(CC(=O)N(Cc2ccccc2)Cc2ccccc2)C(=O)N1CCCCc1ccc(C(=O)O)cc1 (stereo not drawn) [GW0072], the “NCoR and HDAC3 occupancy of iNOS promoter after LPS stimulation” value (iNOS promoter [4]) is given as “both NCoR and HDAC3 remained on the iNOS promoter”, the “dissociation of NCoR from PPARγ” value (PPARγ) is given as “effective at dissociating NCoR from PPARγ; also recorded: disrupts direct interactions between NCoR and PPARγ” and the “stimulation of interactions with nuclear receptor coactivators” value (PPARγ) is given as “only weakly stimulates”.
For CC(/C=C/C(=O)NO)=C\[C@@H](C)C(=O)c1ccc(N(C)C)cc1 [Trichostatin A], the “effect on rosiglitazone-dependent transrepression of iNOS” value (iNOS gene [5]) was “reversed rosiglitazone-dependent transrepression of iNOS”.
In the case of C[C@H](CC[C@@H]1OC1(C)C)[C@H]1CC[C@H]2[C@@H]3CC=C4C[C@@H](O)CC[C@]4(C)[C@H]3CC[C@]12C [24(S), 25-epoxycholesterol], the “repression of iNOS activation” value (iNOS gene [1]) was “repress iNOS activation” and the “induction of ABCA1 expression” value (ABCA1 gene) was “induce ABCA1 expression”.
In the case of C[C@H](CCCC(C)(C)O)[C@H]1CC[C@H]2[C@@H]3CC=C4C[C@@H](O)CC[C@]4(C)[C@H]3CC[C@]12C [25 hydroxycholesterol], the “repression of iNOS activation” value (iNOS gene [1]) was “do not repress iNOS activation” and the “induction of ABCA1 expression” value (ABCA1 gene) was “activate ABCA1”.
In the case of CC(C)CC[C@@H](O)[C@@H](C)[C@H]1CC[C@H]2[C@@H]3CC=C4C[C@@H](O)CC[C@]4(C)[C@H]3CC[C@]12C [22R-hydroxycholesterol], the “repression of iNOS activation” value (iNOS gene [1]) was “repress iNOS activation” and the “induction of ABCA1 expression” value (ABCA1 gene) was “induce ABCA1 expression”.
For CC(C)C(O)CC[C@@H](C)[C@H]1CC[C@H]2[C@@H]3CC=C4C[C@@H](O)CC[C@]4(C)[C@H]3CC[C@]12C (stereo partly drawn) [24-hydroxycholesterol], the “repression of iNOS activation” value (iNOS gene [1]) was “repress iNOS activation” and the “induction of ABCA1 expression” value (ABCA1 gene) was “induce ABCA1 expression”.
With COC(=O)c1ccccc1N[C@@H](Cc1ccc(OCCc2nc(-c3ccccc3)oc2C)cc1)C(=O)O [GW7845] the “effect on LPS induction of Ccl3, Ccl7, Cxcl10 and Tgtp” value [6] was “repression of the LPS response”.
